Data on twelve molecules can be found in PubChem BioAssay (NCI).

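Method: 48-hour compound exposure of cells in 96-well plates, five concentrations, linear interpolation of endpoints. At the TGI there is no net growth.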 A value given as a limit tells only on which side of the number the result lay.

Test systems include UACC-257 melanoma; SK-MEL-2 melanoma; K-562 leukemia; T-47D breast; 786-0 renal; SK-OV-3 ovarian; SN12C renal; HS 578T breast; A498 renal; CCRF-CEM leukemia; TK-10 renal; NCI-H23 lung.
What all share (assay): inhibition of tumour cell growth, NCI panel, 48 h

`COc1cccc(C(=O)N[C@@H]2[C@H](O)[C@@H](CO)O[C@H]2n2cnc3c(N)ncnc32)c1`: the TGI in the assay on UACC-257 melanoma, in the assay with SK-MEL-2 melanoma, with K-562 leukemia, with T-47D breast, with 786-0 renal and in the assay on SK-OV-3 ovarian was > 100 µM each time. In addition, the TGI in the assay with SN12C renal, in the assay with HS 578T breast, in the assay on A498 renal, with CCRF-CEM leukemia, in the assay on TK-10 renal and in the assay on NCI-H23 lung was > 100 µM each time.

Turning to `CSc1nc(-c2ccc(Cl)cc2)c(C#N)c(=O)[nH]1`, the TGI with UACC-257 melanoma, in the assay with SK-MEL-2 melanoma, in the assay on K-562 leukemia, with T-47D breast, in the assay on 786-0 renal and in the assay on SK-OV-3 ovarian was > 100 µM each time. Moreover, the TGI in the assay with SN12C renal, in the assay with HS 578T breast, in the assay on A498 renal, in the assay on CCRF-CEM leukemia, in the assay with TK-10 renal and in the assay with NCI-H23 lung was > 100 µM in each case.

On to `c1cc(C[S+]2CCCC2)oc1C[S+]1CCCC1`, for which the TGI with UACC-257 melanoma, in the assay with K-562 leukemia, in the assay with T-47D breast, in the assay with 786-0 renal, in the assay on SK-OV-3 ovarian and with SN12C renal was > 100 µM throughout. In addition, the TGI with HS 578T breast, in the assay on A498 renal, in the assay on CCRF-CEM leukemia, in the assay on TK-10 renal and with NCI-H23 lung was > 100 µM in each case.

Consider `Cc1cc(-c2ccc(C(=O)C(c3ccccc3)(c3ccccc3)c3ccccc3)[nH]2)on1`, for which the TGI with UACC-257 melanoma is > 100 µM; with SK-MEL-2 melanoma, 36 µM; in the assay on K-562 leukemia it was > 100 µM; in the assay on T-47D breast, > 100 µM; in the assay on 786-0 renal, 40.7 µM; in the assay on SK-OV-3 ovarian it was > 100 µM. Further, the TGI is 40.6 µM in the assay on SN12C renal; > 100 µM in the assay on HS 578T breast; > 100 µM in the assay with A498 renal; 52.9 µM in the assay with CCRF-CEM leukemia; 32.4 µM in the assay on NCI-H23 lung.

Consider `Nc1cc(N)c(N=Nc2cccc3c(S(=O)(=O)O)cccc23)cc1N=Nc1cc([N+](=O)[O-])ccc1O`, for which the TGI with UACC-257 melanoma was 74.5 µM; in the assay with SK-MEL-2 melanoma, > 100 µM; with K-562 leukemia, > 100 µM; in the assay with T-47D breast, > 100 µM; in the assay with 786-0 renal, > 100 µM; in the assay with SK-OV-3 ovarian it was > 100 µM. The TGI in the assay with SN12C renal, in the assay on HS 578T breast, in the assay with A498 renal, in the assay on TK-10 renal and with NCI-H23 lung was > 100 µM each time.

For the molecule `NCCCCCNOCCCN`, the TGI in the assay with UACC-257 melanoma, with SK-MEL-2 melanoma, with K-562 leukemia, in the assay on T-47D breast, with 786-0 renal and with SK-OV-3 ovarian was > 100 µM each time. Moreover, the TGI with SN12C renal, in the assay on HS 578T breast, in the assay on CCRF-CEM leukemia, in the assay with TK-10 renal and in the assay on NCI-H23 lung was > 100 µM in each case.

For the molecule `COC(=O)CNCC1OC2OC(C)(C)OC2C1N=[N+]=[N-]` (centres undefined), the TGI with UACC-257 melanoma, with SK-MEL-2 melanoma, with K-562 leukemia, with T-47D breast, with 786-0 renal and in the assay with SK-OV-3 ovarian was > 100 µM in each case. Besides, the TGI in the assay on SN12C renal, with HS 578T breast, with A498 renal, with CCRF-CEM leukemia and with TK-10 renal was > 100 µM throughout.

For the molecule `COc1nc(C)nc2c1ncn2Cc1ccccc1`, the TGI with UACC-257 melanoma, in the assay on K-562 leukemia, in the assay with T-47D breast, in the assay on 786-0 renal, in the assay with SK-OV-3 ovarian and in the assay with SN12C renal was > 100 µM each time. The TGI in the assay with HS 578T breast, in the assay with A498 renal, in the assay on CCRF-CEM leukemia, in the assay on TK-10 renal and with NCI-H23 lung was > 100 µM each time.

Consider `CCCN(CCC)C(=O)c1c(Cl)c2cccnc2n2c(C)cnc12`, for which the TGI in the assay on UACC-257 melanoma, with K-562 leukemia, in the assay with T-47D breast, in the assay on 786-0 renal, with SK-OV-3 ovarian and with SN12C renal was > 100 µM in each case. The TGI with HS 578T breast, in the assay with A498 renal, in the assay on CCRF-CEM leukemia, in the assay with TK-10 renal and in the assay on NCI-H23 lung was > 100 µM throughout.

As to `CCOC(=O)c1c(NC(=O)c2ccc(Br)cc2)sc2c1CCCC2`, the TGI in the assay on UACC-257 melanoma, in the assay with SK-MEL-2 melanoma, in the assay on K-562 leukemia, in the assay on T-47D breast, in the assay with 786-0 renal and in the assay with SN12C renal was > 100 µM throughout. The TGI in the assay on HS 578T breast, with A498 renal, in the assay on CCRF-CEM leukemia, with TK-10 renal and in the assay with NCI-H23 lung was > 100 µM each time.

`CC(=O)Oc1cc(S(=O)(=O)Nc2n[nH]c(N)n2)c(S)cc1Cl`: the TGI in the assay with UACC-257 melanoma, in the assay with SK-MEL-2 melanoma, with K-562 leukemia, in the assay with T-47D breast, in the assay on 786-0 renal and in the assay with SN12C renal was > 100 µM each time. Further, the TGI in the assay with HS 578T breast, with A498 renal, with CCRF-CEM leukemia, with TK-10 renal and in the assay with NCI-H23 lung was > 100 µM throughout.

With `C=C(CC)C[C@@H]1C[C@]2(C(=O)OC)c3[nH]c4ccccc4c3CCN2C1=O`, the TGI in the assay on UACC-257 melanoma is 41.9 µM; in the assay on SK-MEL-2 melanoma it was 33.1 µM; in the assay with K-562 leukemia, 58.1 µM; in the assay with T-47D breast, > 100 µM; in the assay on 786-0 renal, 33.5 µM; with SK-OV-3 ovarian, 63.9 µM. Also, the TGI was 41.3 µM with SN12C renal; 41.1 µM in the assay with HS 578T breast; 41.1 µM in the assay on A498 renal; > 100 µM in the assay on TK-10 renal; 49.7 µM with NCI-H23 lung.
